Like-named read-outs stand apart in the source and are kept apart here.
Experiments:
[1] = target: T1, human TLR7 (Homo sapiens, UniProt Q9NYK1); assay: SPR binding to TLR7; conditions: for SPR binding to TLR7: neutral pH 7.4 (early endosome)
T1 construct: Fc; purchased R&D Systems
T1 sequence (Q9NYK1 27-839 limits assumed): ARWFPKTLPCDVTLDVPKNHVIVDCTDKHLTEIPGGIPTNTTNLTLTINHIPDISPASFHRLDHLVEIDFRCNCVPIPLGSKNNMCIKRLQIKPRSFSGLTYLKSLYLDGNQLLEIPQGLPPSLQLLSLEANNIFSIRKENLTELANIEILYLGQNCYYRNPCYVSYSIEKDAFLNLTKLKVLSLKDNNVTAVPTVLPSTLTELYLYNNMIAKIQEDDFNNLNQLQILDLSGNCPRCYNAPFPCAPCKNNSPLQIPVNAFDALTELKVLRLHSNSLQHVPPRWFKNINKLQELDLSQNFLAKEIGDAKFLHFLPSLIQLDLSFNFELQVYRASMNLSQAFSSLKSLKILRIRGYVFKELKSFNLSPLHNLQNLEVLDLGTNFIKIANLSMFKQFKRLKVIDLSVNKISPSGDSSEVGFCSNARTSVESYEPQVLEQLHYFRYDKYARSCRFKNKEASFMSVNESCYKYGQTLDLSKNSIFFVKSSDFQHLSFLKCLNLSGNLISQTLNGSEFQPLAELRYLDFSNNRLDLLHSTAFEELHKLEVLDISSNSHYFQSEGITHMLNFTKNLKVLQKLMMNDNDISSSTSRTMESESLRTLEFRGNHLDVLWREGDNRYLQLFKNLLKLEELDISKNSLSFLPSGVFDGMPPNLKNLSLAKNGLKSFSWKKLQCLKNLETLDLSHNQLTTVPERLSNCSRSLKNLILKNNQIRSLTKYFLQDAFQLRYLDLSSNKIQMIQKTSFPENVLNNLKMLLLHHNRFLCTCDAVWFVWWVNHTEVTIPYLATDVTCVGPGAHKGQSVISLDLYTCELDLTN
Experimental: Surface plasmon resonance (SPR) analysis was conducted using an SR7500DC SPR System (Reichert) with a CMDH chip for human TLR7 and murine TLR9 (R&D Systems) and a Biacore T200 platform (Cytiva) with a CM5 chip for TLR9–ODN binding. The running buffer contained 0.5% DMSO and phosphate-buffered saline, and 50 mM NaOH was used for regeneration. ETI series compounds were serially diluted from 500 μM and tested for binding affinity. Binding curves were analyzed using Scrubber2 and Biacore T200 evaluation softwares. The dissociation constants (KD) were calculated as KD = kd/ka.
SPR confirmed the binding mechanisms of ETI41 and ETI60 with TLR7 and TLR9, respectively, under three conditions: (a) early endosome (pH 7.4), (b) late endosome without CpG (pH 5.5) and (c) late endosome with CpG (pH 5.5). (a) Both ETI41 and ETI60 were measured for parameters indicating binding affinity, including the KD value presented in Table 3, and were further analyzed under conditions (b) and (c), depending on the presence or absence of ligand, to explain the binding mechanism occurring in TLR9.

[2] = system: IMQ-induced psoriasis; assay: IMQ-induced psoriasis in mice; assay type: in vivo, mouse; conditions: 60 mg/kg oral daily
Experimental: Six-week-old female C57BL/6J mice were assigned to the following treatment groups: vehicle (n = 5), IMQ (n = 5), ETI41 (n = 4) and ETI60 (n = 5). The mice were obtained from Orient Bio to evaluate the effects of ETI41 and ETI60 on induced psoriasis-like symptoms. This study was approved by the Institutional Animal Care and Use Committee (IACUC; approval no. 2014-0007). Psoriasis was induced using Aldara cream (3M Pharmaceuticals), which was applied topically at 62.5 mg/cm² daily from the day after hair removal until the fourth day. Mice were orally administered 60 mg/kg ETI41 or ETI60 daily commencing on the second day of induction. For IL-23-induced psoriasis, the mice were assigned to the following treatment groups: vehicle (n = 5), IL-23 (n = 5), ETI41 (n = 5), ETI60 (n = 5) and anti-IL-17 Ab (n = 5). Recombinant mouse IL-23 (0.25 mg/kg; BioLegend) was administered via intradermal injection around the ear daily, starting the day after hair removal and continuing until the eighth day. Positive control mice received intraperitoneal (IP) injections of 30 mg/kg anti-mouse IL-17A antibody (BioLegend) on days 2, 5 and 8, while test group mice were administered daily oral doses of 60 mg/kg of ETI41 or ETI60. Changes in body weight and Psoriasis Area and Severity Index (PASI) scores (erythema, scaling and thickness) were recorded daily. Mice were initially anesthetized in an induction chamber with a gas mixture of 4% isoflurane in 70:30 […] and O2, delivered at a flow rate of 0.8 l/min. Subsequently, the isoflurane concentration was reduced to 2%, and the mice were euthanized under anesthesia via endotracheal intubation. Skin samples were collected, fixed and stained with hematoxylin and eosin for histological analysis. Dermal and epidermal thicknesses were measured using a Leica DMi8 microscope (Leica). Immunohistochemical analyses were performed using primary antibodies against CD68 (R&D Systems, MAB101141), Ki-67 (Cell Signaling Technology, 12202), IL-17A (Novus Biologicals, NBP1-72027) and IL-23 (Novus Biologicals, NBP1-76697), followed by detection using biotinylated secondary antibodies (Vector Laboratories) and diaminobenzidine (Vector Laboratories) visualization. Fluorescence measurements for IL-23-induced psoriasis were performed using primary antibodies against CD68 and Ki-67, followed by Alexa Fluor-conjugated secondary antibodies (Life Technologies). Fluorescence was analyzed using a Leica DMi8 microscope.
Anti-IL17A antibody (Ab, 60 µg) was administered by IP injection as a positive control on days 2, 5 and 8. […] CD68 and Ki-67 expression patterns were determined in skin sections from a representative of each group using immunofluorescence. i Ear skin and epidermis thickness, CD68 expression and percentage of Ki-67 cells were examined from 4’,6-diamidino-2-phenylindole-stained cells. Statistical differences between the induced case and other cases were analyzed and verified using a one-tailed Student’s t-test (*P < 0.05, **P < 0.01, ***P < 0.001).

[3] = system: endosomal TLRs; assay: Endosomal TLR-mediated TNF-α production, summary over cell lines; assay type: cell-based; conditions: dose-dependent, without inducing cytotoxic effects
Experimental: RAW 264.7 and differentiated THP-1 cells were seeded into 96-well plates at 2 × 10^4 cells per well, while Daudi cells were seeded at 5 × 10^4 cells per well. After stabilization for 30 min, cells were stimulated with specific TLR agonists for 4 or 24 h. Supernatants were diluted and transferred to precoated ELISA plates to measure TNF-α secretion using kits from Invitrogen. Optical absorbance was measured using a BioTek Synergy HTX multimode microplate reader, and data were interpolated using BioTek Gen5 software.
TLR activation triggers the NF-κB pathway, resulting in increased production of pro-inflammatory cytokines, such as TNF-α and IL-6.

SMILES	Kd [1] [mM]	kd ([1]; Fc-TLR7, pH 7.4) [s⁻¹]	SPR binding to TLR7 [1]	kon ([1]; pH 7.4, read-out: ka) [M⁻¹ s⁻¹]	Dermal inflammatory cell infiltration [2]	Dermal thickness [2]	Epidermal acanthosis [2]	IL-17A and IL-23 expression [2]	Keratinocyte proliferation [2]	PASI scores [2]	TNF-α production by RAW 264.7 and Daudi cells [3]	Kd ([1]; Fc-TLR7, pH 7.4, read-out: KD) [mM]	kon ([1]; Fc-TLR7, pH 7.4, read-out: ka) [M⁻¹ s⁻¹]
Cc1cc2c(N)c3c(nc2n1CCCN(C)C)CCCCCC3 [ETI41]	0.54	0.21	clear binding affinity	400	inhibited	significantly reduced	significantly reduced	inhibited	significantly reduced	significantly reduced	effectively inhibited	–	–
COc1ccc2c3c(N)c4c(nc3n(CCCN(C)C)c2c1)CCCC4 [ETI60]	–	0.124	clear binding affinity	–	inhibited	significantly reduced	significantly reduced	inhibited	significantly reduced	significantly reduced	effectively inhibited	6	20

Source: PMC12508057, “Discovery of ETI41 and ETI60: novel selective endosomal Toll-like receptor inhibitors for the treatment of autoimmune diseases” (Experimental & Molecular Medicine, 2025)
